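48-hour exposure; five concentrations; linearly interpolated endpoints. Here, GI50 denotes the concentration required for 50% inhibition of growth.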 Calls of active or inactive are those of the source. Cut-off read from the data, not from the text of the source: active = GI50 up to about 1.1 µM and inactive = higher.
What was measured:
Test in all cases: NCI anticancer screen, dose series, 48 h
OVCAR-5 = tested on: OVCAR-5
OVCAR-8 = tested on: OVCAR-8
CCRF-CEM = tested on: CCRF-CEM
M14 = tested on: M14
CAKI-1 = tested on: CAKI-1
SR = tested on: SR
OVCAR-4 = tested on: OVCAR-4
786-0 = tested on: 786-0
NCI/ADR-RES = tested on: NCI/ADR-RES
UACC-62 = tested on: UACC-62
KM12 = tested on: KM12
SK-MEL-5 = tested on: SK-MEL-5
HOP-62 = tested on: HOP-62
HCC 2998 = tested on: HCC 2998
NCI-H522 = tested on: NCI-H522
OVCAR-3 = tested on: OVCAR-3
SK-OV-3 = tested on: SK-OV-3
LOX IMVI = tested on: LOX IMVI

SMILES | GI50 (OVCAR-5) | GI50 (OVCAR-8) | GI50 (CCRF-CEM) | GI50 (M14) | GI50 (CAKI-1) | GI50 (SR) | GI50 (OVCAR-4) | GI50 (786-0) | GI50 (NCI/ADR-RES) | GI50 (UACC-62) | GI50 (KM12) | GI50 (SK-MEL-5) | GI50 (HOP-62) | GI50 (HCC 2998) | GI50 (NCI-H522) | GI50 (OVCAR-3) | GI50 (SK-OV-3) | GI50 (LOX IMVI)
CCn1c(=O)c2c3ccc(OC)cc3[nH]c2c2ccc(OC)cc21 | > 100 µM (inactive) | 73.3 µM (inactive) | 29.2 µM (inactive) | 36.1 µM (inactive) | 55.2 µM (inactive) | 70.5 µM (inactive) | 54.1 µM (inactive) | 0.0426 µM (active) | 32.9 µM (inactive) | 63.2 µM (inactive) | 8.18 µM (inactive) | 37.2 µM (inactive) | 37.5 µM (inactive) | 21.2 µM (inactive) | 56.1 µM (inactive) | 37.5 µM (inactive) | 80.7 µM (inactive) | 
COC(=O)C1(NC(=O)C(N)CC(=O)O)C(C)C1C (stereo not given) | > 100 µM (inactive) | > 100 µM (inactive) | > 100 µM (inactive) | > 100 µM (inactive) | > 100 µM (inactive) | > 100 µM (inactive) | > 100 µM (inactive) | > 100 µM (inactive) | > 100 µM (inactive) | > 100 µM (inactive) | > 100 µM (inactive) | > 100 µM (inactive) | > 100 µM (inactive) |  | > 100 µM (inactive) | > 100 µM (inactive) | > 100 µM (inactive) | > 100 µM (inactive)
COc1ccc(N2C(=O)C3c4[nH]c5ccc(C)cc5c4C4CCC(C(C)(C)C)CC4C3C2=O)cc1 (stereo not given) |  | 6.21 µM (inactive) | 4.84 µM (inactive) | 10.7 µM (inactive) | 10.3 µM (inactive) | 11.6 µM (inactive) | 3.35 µM (inactive) | 20.4 µM (inactive) | 13.3 µM (inactive) | 7.93 µM (inactive) | 32.8 µM (inactive) | 20.7 µM (inactive) | 13.6 µM (inactive) | 41 µM (inactive) | 25.6 µM (inactive) | 10 µM (inactive) | 12.4 µM (inactive) | 
O=[N+]([O-])c1ccc(S[C@@H]2[C@H]3c4c(-c5ccccc5)[nH]c(-c5ccccc5)c4[C@@H]2C[C@H]3Cl)cc1 | 9.95 µM (inactive) | 4.38 µM (inactive) |  | 3.23 µM (inactive) | 3.38 µM (inactive) | 1.14 µM (inactive) | 1.6 µM (inactive) | 2.62 µM (inactive) | 2.87 µM (inactive) | 2.83 µM (inactive) | 3.05 µM (inactive) | 4.66 µM (inactive) | 3.56 µM (inactive) |  | 2.9 µM (inactive) | 3.33 µM (inactive) | 9.98 µM (inactive) | 3.1 µM (inactive)
CC(CCN)(CCN)[N+](=O)[O-] | > 100 µM (inactive) | > 100 µM (inactive) | > 100 µM (inactive) | > 100 µM (inactive) | > 100 µM (inactive) | > 100 µM (inactive) | > 100 µM (inactive) | > 100 µM (inactive) | > 100 µM (inactive) | > 100 µM (inactive) | > 100 µM (inactive) | > 100 µM (inactive) | > 100 µM (inactive) |  | > 100 µM (inactive) | > 100 µM (inactive) | > 100 µM (inactive) | > 100 µM (inactive)
N=C(CCl)NC1CN2CCC1CC2 (stereo not given) | 75 µM (inactive) | > 100 µM (inactive) | 18.6 µM (inactive) | > 100 µM (inactive) | 50.9 µM (inactive) | 32.7 µM (inactive) | 59 µM (inactive) | 97.5 µM (inactive) | > 100 µM (inactive) | > 100 µM (inactive) | > 100 µM (inactive) | > 100 µM (inactive) | > 100 µM (inactive) |  | 19.4 µM (inactive) | > 100 µM (inactive) | > 100 µM (inactive) | 34.1 µM (inactive)

Reference: ChEMBL document CHEMBL1201862, “PubChem BioAssay data set” (2004)
